Measured values reported in US5114918A, “Endothelin antagonistic cyclic pentapeptides” (Banyu Pharmaceutical Co., Ltd., priority 1989, dated 1992).
One block for each compound: values may come before it. Square brackets hold non-standard residues; d marks the D form. Peptide text beside a SMILES is read from it. * marks the point of attachment. d(aIle) = CC[C@H](C)[C@@H](N)C(=O)O; dCya = N[C@H](CS(=O)(=O)O)C(=O)O; Nle = CCCC[C@H](N)C(=O)O; For = O=C*

Experiments:
[1] = target: T1, endothelin receptor (membrane of smooth muscle tissue of porcine aorta) (Sus scrofa, UniProt Q29010); assay: Endothelin binding inhibition test (125I-endothelin-1, porcine aorta smooth muscle membrane); details: 1.1 μM of the test compound, porcine aorta smooth muscle membrane, 25° C, 4 hours; for inhibition at 1.1 µM: read-out: 125I-endothelin-1 binding inhibition, Inhibition (%)
T1 construct: from tissue; host or cells: smooth muscle tissue of porcine aorta (membrane fraction)
T1 sequence (Q29010 21-427): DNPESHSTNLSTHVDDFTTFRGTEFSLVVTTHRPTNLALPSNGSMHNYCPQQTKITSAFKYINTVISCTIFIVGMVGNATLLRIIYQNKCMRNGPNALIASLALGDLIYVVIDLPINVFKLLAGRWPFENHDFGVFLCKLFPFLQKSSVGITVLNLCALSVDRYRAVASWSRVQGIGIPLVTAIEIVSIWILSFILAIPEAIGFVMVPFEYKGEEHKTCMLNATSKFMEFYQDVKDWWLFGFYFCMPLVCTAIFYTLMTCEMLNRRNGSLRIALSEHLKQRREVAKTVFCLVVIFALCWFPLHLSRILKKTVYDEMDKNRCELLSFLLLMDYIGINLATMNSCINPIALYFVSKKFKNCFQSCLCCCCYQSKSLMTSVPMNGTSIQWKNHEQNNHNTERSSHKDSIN
In short: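 Porcine aortic smooth muscle membranes incubated with ^125I-endothelin-1 (12000-18000 cpm) and test compound at 1.1 μM final in Tris/HCl pH 7.4 with protease inhibitors and 0.1% BSA, 4 h at 25 °C. Filter-bound radioactivity counted, nonspecific binding defined with 0.2 μM endothelin-1; % binding inhibition in triplicate.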

[2] = tested on: isolated porcine coronary artery (endothelin-1-induced contraction); assay: Activities against endothelin-induced contraction of isolated porcine coronary arteries; design: species or system pig; details: for shift of the concentration-response curve of endothelin-1: added 20 minutes prior to endothelin-1
Description: Activities against endothelin-induced contraction of isolated procine coronary arteries
The coronary artery of pig was extracted, and a spiral preparation having a width of 1 mm and a length of 10 mm was prepared therefrom. The preparation having the endothelial cells denuded, was hanged in a 5 ml organ bath filled wit a Krebs.Henseleit solution saturated with a gas mixture of 95% O2 and 5% CO2, and the change in the tension was isometrically measured and recorded.
(§1) Endothelin-1 was added into the organ bath in a cumulatively increasing manner, whereby the influence of the compound of the present invention to the concentration-response curve for endothelin-1 was examined. The compound of the present invention was added into the organ bath 20 minutes prior to the addition of endothelin-1.

[3] = tested on: isolated guinea pig trachea (endothelin-1-induced contraction); assay: Activities against endothelin-induced contraction of isolated guinea pig trachea; details: compound 6 μM
Description: Activities aqainst endothelin-induced contraction of isolated guinea pig trachea
The trachea of a guinea pig was extracted, and the trachea was cut into rings to afford the preparation. A preparation having the endothelial cells denuded, was hanged in a 5 ml organ bath filled with a Krebs.Henseleit solution saturated with a gas mixture of 95% O2 and 5% CO2, and the change in the tension was isometrically measured and recorded.
as §1, with “manner, and” for “manner, whereby”, “for endothelin” for “for endothelin-1”

[4] = tested on: isolated rat heart (endothelin-1-induced increase of perfusion pressure); assay: Effects on the increased perfusion pressure induced by endothelin in isolated rat heart
Description: Effects on the increased perfusion pressure induced by endothelin in isolated rat heart
The heart of a male Sprague Dohrie (SD) rat was extracted, and the perfusion pressure was measured and recorded by a Langendorff's method. The perfusion pressure was evaluated on the basis that the state where a Krebs.Henseleit solution saturated with a gas mixture of 95% O2 and 5% CO2 was infused at a rate of 10 ml/min, was taken as a standard.
Endothelin-1 was cumulatively added to the perfusate, whereby the influence of the compound to the concentration-response curve for endothelin-1 was examined. The compound of the present invention which was dissolved in the perfusate had been infused from 20 minutes prior to the addition of endothelin-1 till just after finishing measurement of the concentration-response curve for endothelin-1.

[5] = tested on: isolated porcine basilar artery (endothelin-1-induced contraction); assay: Activities against endothelin-induced contraction of isolated porcine basilar artery; design: species or system pig; details: compound 2 μM
Description: Activities aqainst endothelin-induced contraction of isolated porcine basilar artery
The arteria basilaris of pig was extracted, and then a ring preparation with a width of 4 mm was prepared. After denuded the endothelial cells, the preparation was hanged in a 5 ml organ bath filled with a Krebs.Henseleit solution saturated with a gas mixture of 95% O2 and 5% CO2, and the change in the tension was isometrically measured and recorded.
as §1

[6] = added 20 minutes prior to endothelin-1

Compound: CCCC[C@@H]1NC(=O)[C@@H](C(C)C)NC(=O)[C@@H]2CCCN2C(=O)[C@@H](CS(=O)(=O)O)NC(=O)[C@@H](Cc2c[nH]c3ccccc23)NC1=O [Example 5, cyclo(-DTrp-DCys(O3 Na)-Pro-DVal-Nle-)] (cyclo([Nle][dW][dCya]P[dV]))
- inhibition at 1.1 µM [1]: 81%

Compound: CSCC[C@@H]1NC(=O)[C@@H](CC(=O)O)NC(=O)[C@@H](Cc2cn(C=O)c3ccccc23)NC(=O)[C@H](CC(C)C)NC(=O)[C@@H](C(C)C)NC1=O [Example 55, cyclo(-DTrp(CHO)-DAsp-Met-DVal-Leu-)] (cyclo(L[dW](For)[dD]M[dV]))
- inhibition at 1.1 µM [1]: 81%

Compound: CSCC[C@@H]1NC(=O)[C@@H](CC(=O)O)NC(=O)[C@@H](Cc2c[nH]c3ccccc23)NC(=O)[C@H](CC(C)C)NC(=O)[C@@H](C(C)C)NC1=O [Example 14, cyclo(-DTrp-DAsp-Met-DVal-Leu-)] (cyclo(L[dW][dD]M[dV]))
- inhibition at 1.1 µM [1]: 75%

Second part, led by results:

- inhibition at 1.1 µM [1]: 75%
Compound: CC(C)C[C@@H]1NC(=O)[C@@H](C(C)C)NC(=O)[C@H](C)NC(=O)[C@@H](CC(=O)O)NC(=O)[C@@H](Cc2c[nH]c3ccccc23)NC1=O [Example 12, cyclo(-DTrp-DAsp-Ala-DVal-Leu-)] (cyclo(A[dV]L[dW][dD]))
- effect on the maximum response to endothelin-1 ([2]; compound 3 μM): did not affect the maximum response
- shift of the concentration-response curve of endothelin-1 ([2]; compound 3 μM): remarkably shifted the concentration-response curves of endothelin-1 to the right

- 125I-endothelin-1 binding inhibition, Inhibition (%) [1]: 37%
Compound: cyclo([dW][dE]A[d(aIle)]L) [Example 8]

- 125I-endothelin-1 binding inhibition, Inhibition (%) [1]: 85%
Compound: cyclo(-DTro-DCys(O3 Na)-Pro-DVal-Leu-) [Example 3]
- effect on the maximum response to endothelin-1 [3]: did not affect the maximum response
- shift of the concentration-response curve for endothelin-1 [3, 6]: remarkably shifted the concentration-response curves for endothelin-1 to the right
- effect on the maximum response to endothelin-1 (perfusion pressure) ([4]; compound 1 μM): did not affect the maximum response
- shift of the concentration-response curve for endothelin-1 (perfusion pressure) ([4]; compound 1 μM in the perfusate from 20 minutes prior to endothelin-1, Langendorff): moved the concentration-response curve for endothelin-1 to the right
- effect on the maximum response to endothelin-1 ([2]; compound 2 μM): did not affect the maximum response
- shift of the concentration-response curve of endothelin-1 ([2]; compound 2 μM): remarkably shifted the concentration-response curves of endothelin-1 to the right
- effect on the maximum response to endothelin-1 [5]: did not affect the maximum response
- shift of the concentration-response curve for endothelin-1 [5, 6]: remarkably shifted the concentration-response curve for endothelin-1 to the right
